{"source": "patent US6943191B1", "about": "“Disubstituted lavendustin A analogs and pharmaceutical composition comprising the analogs” (The United States of America as represented by the …, priority 1998, dated 2005)", "key": {"[1]": {"system": "K562 cells", "test": "K562 cell culture and growth assay, 6 day MTT", "type": "cell-based, human", "details": "K562, 6 days, 4 or more experiments", "procedure": "This example describes the procedure used for cell culture and growth assays. Human leukemia, Philadelphia-chromosome-positive CML cell line K562 was obtained from ATCC (Rockville, Md.). Cells were cultured in RPMI medium containing 10% fetal calf serum, 2 mM glutamine, 100 units/ml of penicillin and 100 μg/ml streptomycin Cells (2×10^3 cells/well) were incubated with increasing concentrations of compounds of the present invention dissolved in DMSO in a final volume of 200 μl in 96-well plates. Control cells were incubated with medium containing identical concentrations of the DMSO solvent. Growth of K562 cells was quantitated after 6 days by ability of living cells to reduce the yellow dye 3-(4,5-dimethylthiazolyl)-2,5-diphenyltetrazolium bromide (MTT) to a blue formazan product. Further information concerning this procedure is provided by Mossman T., “Rapid Colorimetric Assay for Cellular Growth and Survival—Application to Proliferation and Cytotoxicity Assays,” J. Immunol. Methods 1983, 65:55-63, which is incorporated herein by reference."}, "[2]": {"system": "panel of approximately 60 different human tumor cell lines", "test": "National Cancer Institute drug screen, mean-graph parameters", "type": "cell-based", "details": "mean over cell line panel, two days exposure; for GI50: Homo sapiens, 48 h, read-out: Tumor cell Mean log GI50 (converted)", "procedure": "Compounds of the present invention also have been subjected to the drug screening procedure employed by the National Cancer Institute for the screening of drugs having possible anticancer utility. The screening procedure uses a diverse, disease-oriented panel consisting of approximately 60 different human tumor cell lines organized into disease-specific subpanels. The compounds of the present invention were tested over a range of concentrations for cytotoxic or growth-inhibitory effects against cell lines comprising the panel. The eight subpanels represented diverse histologies (leukemias, melanomas, and tumors of the lung, colon, kidney, breast, ovary, and brain).\nCompounds of the present invention were tested over a period of two days. During this period the cells were continuously exposed to various concentrations of the compounds tested. The tests produced individual dose-responses, one for each cell line (i.e. one for each example), and the data were represented in dose-response curves. The data provided by these dose response curves were summarized using a mean-graph format.\nTo produce data for the mean-graph format, a compound concentration that produced a target level response was calculated for each cell line. Three different response parameters were evaluated. The first response parameter was the growth inhibition (“GI50”). GI50 is the concentration of compounds made according to the present invention that produced an apparent 50% decrease in the number of tumor cells relative to the appropriate control (not exposed to the compounds of the present invention) at the end of the incubation period.\nThe second response parameter was the total growth inhibition (“TGI”). TGI is the concentration at which the number of tumor cells remaining at the end of the incubation period substantially equal the number of tumor cells existing at the start of the incubation period.\nThe third response parameter was the lethal concentration (“LC50”) LC50 is the concentration of compounds made according to the present invention that caused an apparent 50 percent reduction in the number of tumor cells […] at the start of the incubation period.\nIn a typical GI50 mean graph, the relative position of the vertical reference line along the horizontal concentration axis was obtained by averaging the negative log10GI50 values for all the cell lines tested against the compound. Horizontal bars were then plotted for the individual negative log10GI50 values of each cell line relative to the vertical reference line. The GI50 graph thus provided a characteristic fingerprint for the compound, displaying the individual cell lines that are proportionately more sensitive than average (bars extending to the right of the reference line) or proportionately less sensitive than average (bars extending to the left of the reference line). The length of a bar was proportional to the difference between the log10GI50 value obtained with the particular cell line and the mean (represented by the vertical reference line).\nSimilar mean graphs were prepared for the TGI and LC50 response parameters."}, "[3]": {"system": "minimum of 12 human cancer cell lines", "test": "Hollow fiber assay in mice, point score", "type": "in vivo", "details": "for Hollow Fiber Assay IP score: first number of cell; for Hollow Fiber Assay SC score: second number of cell", "procedure": "Compounds satisfying Formulas 1 and 2 also have been tested for in vivo activity in the hollow fiber assay. See Example 12 below for the procedure used for the in vivo tests. Each compound tested was tested against a minimum of 12 human cancer cell lines. Data is reported as % T/C (i.e., the […]) for each of the 2 compound doses against each of the cell lines with separate values calculated for the intraperitoneal and subcutaneous samples, with a target value for % T/C being about 50 or less.\nCompounds were selected for further in vivo testing in standard subcutaneous xenograft models on the basis of several hollow fiber assay criteria. These criteria include: (1) a % T/C of 50 or less in 10 of the 48 possible test combinations (12 cell lines×2 sites×2 compound doses); (2) activity at a distance (intrapentoneal drug/subcutaneous culture) in a minimum of 4 of the 24 possible combinations; and/or (3) a net cell kill of 1 or more cell lines in either implant site. To simplify evaluation, a point system has been adopted which allows rapid assessment of a compound's activity. A value of 2 is assigned for each compound dose which results in a 50% or greater reduction in viable cell mass. The intraperitoneal and subcutaneous samples were scored separately so that criteria (1) and (2) could be evaluated. Compounds with a combined IP+SC score≧20, an SC score≧8, or a net cell kill of one or more cell lines were referred for xenograft testing. These criteria have been statistically validated by comparing the activity outcomes of greater than 80 randomly selected compounds in the hollow fiber assay and in the xenograft testing.\nThis example describes the method used for in vivo testing of mice. Human cancer cells were cultivated in polyvinylidene fluoride (PVDF) hollow fibers. A sample of each cancer cell line was implanted intraperitoneally and subcutaneously in mice. Each mouse received a total of 6 fibers, 3 intraperitoneally and 3 subcutaneously, representing 3 distinct cancer cell lines. Three mice were treated with compounds made according to the present invention at each of two test doses intraperitoneally using a QD×4 treatment schedule. Vehicle controls consisted of 6 mice receiving the compound diluent only The fiber cultures were collected on the day following the last treatment. Anticancer effects were assessed by determining viable cell mass for each of the coil line using a formazan dye (MTT) conversion assay. From this, the % TIC was calculated using the average optical density of the compound-treated samples divided by the average optical density of the vehicle controls. In addition, the net increase in cell mass was determined for each sample as samples of fiber cultures were assessed for viable cell mass on the day of implantation into mice. This allowed cytostatic and cytocidal capacities of these compounds to be assessed."}, "[4]": {"details": "Homo sapiens, 144 h, Table 9, mean ± S.E., read-out: IC50 (μM) 6dMTT"}}, "note": "Like-named read-outs stand apart in the source and are kept apart here.", "data": [{"compound": "COC(=O)c1ccc(CCC2=CC(=O)C=CC2=O)cc1", "note": "[COOCH3 / 2,5-quinoyl / CH2—CH2 / H]", "values": [{"measurement": "IC50", "setting": "[1]; Table 10, mean ± S.E., read-out: IC50 (μM) 6dMTT", "result": "5.65 ± 0.8", "unit": "µM"}, {"measurement": "Tumor Cell Mean log GI50", "setting": "[2]; Table 10", "result": "−5.00"}, {"measurement": "Tumor Cell Mean log TGI", "setting": "[2]; Table 10", "result": "−4.65"}, {"measurement": "Hollow Fiber Assay IP score", "setting": "[3]; Table 10", "result": 6}, {"measurement": "Hollow Fiber Assay SC score", "setting": "[3]; Table 10", "result": 4}, {"measurement": "Hollow Fiber Assay Total Ip and SC Score", "setting": "[3]; Table 10", "result": 10}]}, {"compound": "COC(=O)c1ccc(NCc2cc(OC)ccc2OC)cc1", "note": "[COOCH3 / H / CH3]", "values": [{"measurement": "IC50", "setting": "[1]; Homo sapiens, 144 h, Table 8, mean+S.E., read-out: IC50 (μM) 6 dMTT", "result": 41.3, "unit": "µM"}, {"measurement": "Tumor Cell Mean log GI50", "setting": "[2]; Table 8", "result": "−4.40"}, {"measurement": "Tumor Cell Mean log TGI", "setting": "[2]; Table 8", "result": "−4.04"}]}, {"compound": "O=C(O)c1ccc(/C=C/c2cc(O)ccc2O)cc1O", "note": "[COOH / 2,5-dihydroxyphenyl / CH═CH / OH]", "values": [{"measurement": "Tumor Cell Mean log GI50", "setting": "[2]; Table 10", "result": ">−5.03"}, {"measurement": "Tumor Cell Mean log TGI", "setting": "[2]; Table 10", "result": ">−5.0"}]}, {"compound": "COc1ccc(OC)c(CNc2ccc(C(=O)O)cc2)c1", "note": "[COOH / H / CH3]", "values": [{"measurement": "IC50", "setting": "[1]; Table 8, mean+S.E., read-out: IC50 (μM) 6 dMTT", "result": 100, "unit": "µM"}, {"measurement": "Tumor Cell Mean log GI50", "setting": "[2]; Table 8", "result": "−4.0"}, {"measurement": "Tumor Cell Mean log TGI", "setting": "[2]; Table 8", "result": "−4.0"}]}, {"compound": "COC(=O)c1ccc(NCc2cc(O)c3ccccc3c2O)cc1", "note": "[Compound 18]", "values": [{"measurement": "IC50", "setting": "[1]; [4]", "result": "6.83 ± 1.68", "unit": "µM"}, {"measurement": "GI50", "setting": "[2]; Table 9", "result": 8.91, "unit": "µM"}, {"measurement": "Tumor Cell Mean log TGI", "setting": "[2]; Table 9", "result": "−4.62"}, {"measurement": "Hollow Fiber Assay IP score", "setting": "[3]; Table 9, intraperitoneal fibers", "result": 4}, {"measurement": "Hollow Fiber Assay SC score", "setting": "[3]; Table 9, subcutaneous fibers", "result": 0}, {"measurement": "Hollow Fiber Assay Total Ip and SC Score", "setting": "[3]; Table 9", "result": 0}]}, {"compound": "COC(=O)c1ccc(NCC2=CC(=O)c3ccccc3C2=O)cc1", "note": "[Compound 19, 4′-methylbenzoate-1′-N-1,4-methylnaphthoquinone amine]", "values": [{"measurement": "IC50", "setting": "[1]; [4]", "result": "9.11 ± 1", "unit": "µM"}, {"measurement": "GI50", "setting": "[2]; Table 9", "result": 13.8, "unit": "µM"}, {"measurement": "Tumor Cell Mean log TGI", "setting": "[2]; Table 9", "result": "−4.41"}]}, {"compound": "O=C1C=CC(=O)C(CNc2ccc(C(=O)OC34CC5CC(CC(C5)C3)C4)cc2)=C1", "note": "[Compound 22, 4′-adamantylbenzoate-1′-N-p-quinone-2-methyl amine]", "values": [{"measurement": "IC50", "setting": "[1]; [4]", "result": "32 ± 0.5", "unit": "µM"}, {"measurement": "GI50", "setting": "[2]; Table 9", "result": 4.79, "unit": "µM"}, {"measurement": "Tumor Cell Mean log TGI", "setting": "[2]; Table 9", "result": "−4.72"}]}]}
